In patent publication US6935334B2, “Enhancing therapeutic effectiveness of nitric oxide inhalation” (The General Hospital Corporation, priority 2000, dated 2005):

How the values were obtained:
[1] = system: hypoxic pulmonary vasoconstriction (HPV) in mice; experiment: Redistribution of pulmonary blood flow (QLPA/QPA) after left mainstem bronchus occlusion (LMBO), murine HPV model; format: in vivo, mouse
Experimental: Group 3: endotoxin-treated+L-NIL. SV129/B6F1 wild-type mice (n=5) were injected intraperitoneally with 10 mg/kg E. coli 011B4 endotoxin dissolved in 0.2 mL saline. Three hours after the endotoxin challenge, mice were treated with L-NIL 5 mg/kg intraperitoneally. Studies were performed 22 hours after the endotoxin challenge. In additional SV129/B6F1 mice with (n=5) and without (n=4) a prior challenge of endotoxin (22 hours earlier), the acute response to an intravenous bolus of 5 mg/kg L-NIL administered during LMBO, was studied.
Group 4: prolonged exposure to 4 or 40 ppm NO. Saline-treated SV129 wild-type mice (n=5) and NOS2-deficient mice (n=5) breathed 40 ppm NO in air for 22 hours and were studied 1 hour after discontinuation of NO inhalation. SV129 wild-type mice (n=5) and NOS2-deficient mice (n=5) breathed 40 ppm NO in air for 22 hours after challenge with 10 mg/kg endotoxin intraperitoneally and were studied 1 hour after discontinuation of NO inhalation. Additional NOS2-deficient mice (n=4) breathed 4 ppm of NO in air for 22 hours after challenge with 10 mg/kg endotoxin intraperitoneally and were studied 1 hour after discontinuation of NO inhalation.
Experimental preparation. Mice were anesthetized by intraperitoneal injection of ketamine (0.1 mg/g body weight [bw]). Tracheostomy and arterial catheterization were performed as described previously (Steudel et al., 1997, Circ. Res. 81:34-41). A custom-made endotracheal tube (22G Angiocath; Becton Dickinson Healthcare Systems, Sandy, Utah, USA), combined with a 2 French Fogarty arterial embolization catheter (Baxter Healthcare Corp., Irvine, Calif., USA) was inserted into the trachea, with the balloon tip of the Fogarty catheter initially remaining in the trachea. Volume-controlled ventilation was initiated at a respiratory rate of 110-120 breaths per minute, at FiO2 1.0, a peak inspiratory pressure of 13 cm H2O, and a positive end-expiratory pressure level of 2-3 cm H2O. A right parasternal thoracotomy was performed, and a small-vessel ultrasonic flow probe (1RB; Transonic Instruments, Ithaca, N.Y.) was placed around the right pulmonary artery and fixed in position using a micromanipulator (X-tra Hand; TechniTool, Plymouth, Pa.). A 4-0 silk suture was positioned around the left main pulmonary artery to allow transient vascular occlusion. A pulmonary artery catheter (PE10) was inserted into the main pulmonary artery by direct puncture. In other experiments, a lower thoracic aortic flow probe was placed as reported previously (Steudel et al., supra).
Blood flow and pressure measurements. Mean systemic arterial pressure (PSA), mean pulmonary artery pressure (PPA), and in some studies PLA, were continuously monitored using biomedical amplifiers (Hewlett Packard 8805C, Palo Alto, Calif.; Siemens Sirecust 960, Danvers, Mass.). Mean lower thoracic aortic flow (QLTAF) and right pulmonary artery flow (QRPA) were measured with small vessel flow probes connected to a flowmeter (T106; Transonic Instruments). In some experiments, left ventricular end-diastolic pressure was measured with a 1.4 Fr. Millar catheter. The catheter was advanced through the right carotid artery into the left ventricle. […] All monitoring equipment was calibrated before each experiment.
Differential measurement of left and right pulmonary artery flow. To assess the contribution of QRPA and left pulmonary artery flow (QLPA) to total pulmonary artery flow (QPA), transient occlusion (90 seconds) of the left pulmonary artery (QLPA) was performed. QRPA during acute left pulmonary artery occlusion was considered to be QPA (i.e., cardiac output) and correlated closely (r2=0.88; y=0.95x+0.38; n=9) with QLTAF. QLPA was calculated as the difference between QRPA during left pulmonary artery occlusion (QPA) and QRPA with a patent left pulmonary artery (QLPA=QPA−QRPA). Absolute values of respective flows were recorded, and the fractional distribution of flow to the right and left lungs (QRPA/QPA and QLPA/QPA) was calculated. […]

NOS2 = experiment: Pulmonary cGMP levels after endotoxin challenge; format: in vivo, mouse; details: wild-type mice 7 hours after endotoxin challenge; L-NIL 5 mg/kg intraperitoneally; data not shown
[2] = saline-treated wild-type mice, L-NIL 5 mg/kg intravenously after LMBO

## CC(=N)NCCCC[C@H](N)C(=O)O [L-NIL]
[1]; endotoxin-challenged (10 mg/kg i.p.) wild-type mice treated with L-NIL 5 mg/kg intraperitoneally 3 hours later, studied 22 hours after endotoxin
  reduction of QLPA/QPA after LMBO: 53±10%
[1]; [2]
  all other hemodynamic parameters after L-NIL injection: did not change
  reduction of QLPA/QPA during LMBO after acute L-NIL: 56±3%
[1]; wild-type mice treated with endotoxin 22 hours earlier, L-NIL 5 mg/kg intravenously after LMBO
  reduction of QLPA/QPA during LMBO after acute L-NIL: 24±18%
NOS2
  increase in pulmonary cGMP levels: sufficient to prevent the increase in pulmonary cGMP levels
